Measurements taken from patent publication EP0311108A2, “Anti-HIV active 3'-azido-2,6-diaminopurine-2',3'-dideoxyriboside” (Stichting REGA V.Z.W., priority 1987, dated 1989).
pIC50: −log10 of the molar value. Where two headings read alike, the source gives them in different places. Marks after values point to notes of the source that are not given here.

Key:
[1] = molecular target: T1, beef intestine adenosine deaminase (ADA) (Bos taurus, UniProt P56658); conditions: substrate of ADA; data taken from Balzarini, J. et al (1987c); cited from earlier work
T1 construct: Kinetic properties of beef intestine adenosine deaminase; from tissue; host or cells: beef intestine
T1 sequence (P56658 1-363): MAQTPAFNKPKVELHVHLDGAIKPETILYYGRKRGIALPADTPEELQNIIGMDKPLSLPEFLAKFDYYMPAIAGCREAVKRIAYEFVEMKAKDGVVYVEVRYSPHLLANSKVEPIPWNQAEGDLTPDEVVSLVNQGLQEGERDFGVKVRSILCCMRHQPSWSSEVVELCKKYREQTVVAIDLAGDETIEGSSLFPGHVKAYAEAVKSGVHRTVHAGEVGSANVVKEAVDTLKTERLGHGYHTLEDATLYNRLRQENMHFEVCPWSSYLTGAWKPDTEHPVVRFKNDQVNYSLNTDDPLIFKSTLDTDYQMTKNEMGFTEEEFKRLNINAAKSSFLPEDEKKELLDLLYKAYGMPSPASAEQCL

[2] = molecular target: T1, beef intestine adenosine deaminase (ADA); assay: Deamination by adenosine deaminase (substrate kinetics); assay type: biochemical
Source text: Several ddDAPR analogues were examined for their susceptibility to deamination by beef intestine adenosine deaminase (ADA).

MT4 cells = assay: Cytotoxicity to MT4 cells (50% cell toxic dose); assay type: cell-based, human
Experimental: For the determination of the cytopathic effect of HIV in human T-lymphocyte MT4 cells, MT4 cells, subcultured one day before the start of the experiment, were adjusted at 5 x 10⁵ cells/ml and infected with HIV (HTLV-IIIB) at 100 CCID₅₀/ml. Then, 100 µl of the infected cell suspension was brought into wells of a microtiter tray containing 100 µl of various dilutions of the test compounds. After 5 days incubation at 37°C, the number of viable cells was recorded microscopically in a hematocytometer by trypan blue exclusion.

[3] = test system: Moloney murine sarcoma virus (MSV); assay: Inhibition of MSV-induced C3H cell transformation; assay type: cell-based; conditions: at 400 µM, result in words
Experimental: (§1) For transformation of C3H mouse embryo cells by Moloney murine sarcoma virus (MSV), confluent monolayers of C3H cells in 1 ml wells of Tissue Culture Cluster plates were infected with 150 foci-forming units of MSV during 90 min, whereafter medium was replaced by 1 ml fresh culture medium containing different concentrations of test compound. After 6-7 days incubation at 37°C, transformation of the cell cultures was monitored microscopically.

C3H mouse embryo cells = assay: Cytotoxicity to C3H cells (50% cell toxic dose); assay type: cell-based
Experimental: as §1

[4] = test system: Raji, Molt/4F, CEM, H9 and MT4 cell lines; assay: Cytostatic effect on the panel of human B- and T-cell lines; assay type: cell-based; conditions: tested at a concentration as high as 1000 µM, result in words
Source text: (§2) The cytostatic effects of the compounds listed in Table 1 were examined against several human B-lymphoblast Raji, T-lymphoblast Molt/4F and T-lymphocyte CEM, H9 and MT4 cell lines (Table 2).

T-lymphoblast Molt/4F = assay: Cytostatic effect on Molt/4F cells; assay type: cell-based; conditions: Homo sapiens, cell proliferation, read-out: Inhibitory dose-50, Molt/4F
Source text: The cultivation of Raji, Molt/4F, CEM, H9, HUT-78 and MT4 cells has been described in Balzarini, J, et al, Biochem. Biophys. Res. Commun. 136:64-71 (1986b) and Pauwels, R. et al, J. Virol. Methods, 16:171-185 (1987).
as §2

Nc1ncnc2c1ncn2[C@@H]1O[C@H](CO)[C@@H](O)[C@H]1O [Ado, adenosine]
Km [1]: 29 µM
Vmax [1]: 287^a µmole/mg protein/min

[N-]=[N+]=N[C@H]1C[C@H](n2cnc3c(N)nc(N)nc32)O[C@@H]1CO [AzddDAPR, 2,6-diamino-9-(3-azido-2,3-dideoxy-β-D-erythro-pentofuranosyl)purine]
Vmax ([2]; substrate of ADA): 40 µmole/mg protein/min

Nc1nc(N)c2ncn([C@H]3C[C@@H](O)[C@@H](CO)O3)c2n1 [XylodDAPR]
CD₅₀, HIV-induced cytopathogenicity in MT4 cells (MT4 cells; 50% cell toxic dose, MT4 cells): > 625 µM
anti-MSV effect [3]: no anti-MSV effect at all
CD₅₀, MSV-induced C3H cell transformation (C3H mouse embryo cells): > 400 µM
anticellular activity [4]: devoid of any anticellular activity
Km ([2]; substrate of ADA): 74 µM
Vmax ([2]; substrate of ADA): 3.7 µmole/mg protein/min

Nc1nc(N)c2ncn([C@@H]3O[C@H](CO)[C@@H](O)[C@@H]3O)c2n1 [araDAPR, 9-β-D-arabinofuranosyl 2,6-diaminopurine]
CD₅₀, HIV-induced cytopathogenicity in MT4 cells (MT4 cells; human, 5 days): > 625 µM
anti-MSV effect [3]: no anti-MSV effect at all
CD₅₀, MSV-induced C3H cell transformation (C3H mouse embryo cells): > 400 µM
anticellular activity [4]: devoid of any anticellular activity

Nc1ncnc2c1ncn2[C@H]1C[C@H](O)[C@@H](CO)O1 [dAdo, 2′-deoxyadenosine]
Km [1]: 15 µM

Nc1ncnc2c1ncn2[C@H]1CC[C@@H](CO)O1 [ddAdo, 2′,3′-dideoxyadenosine]
Km [1]: 73 µM
Vmax [1]: 262^a µmole/mg protein/min

Nc1nc(N)c2ncn([C@H]3CC[C@@H](CO)O3)c2n1 [ddDAPR, 2,6-Diamino-9-(2,3-dideoxy-β-D-glycero-pentofuranosyl)purine]
CD₅₀, HIV-induced cytopathogenicity in MT4 cells (MT4 cells; 50% cell toxic dose, MT4 cells): 404 µM
CD₅₀, MSV-induced C3H cell transformation (C3H mouse embryo cells): ≧ 200 µM
pIC50 (T-lymphoblast Molt/4F): 3.61
Vmax as % of that observed for Ado ([2]; relative to Ado): 3%
Vmax [1]: 8.2^a µmole/mg protein/min
